The target in assay [1] is human GLP-1 receptor (hGLP-1R) (Homo sapiens, UniProt P43220). In words: cAMP production (HTRF) in CHO cells expressing hGLP-1R. On the set-up: expressed in transfected cells. Particulars: for % Relative Potency Ratio: % GLP-1R activity relative to GLP-1 / % GlucR activity relative to glucagon; for EC50: cAMP, CHO cells, 0.1% BSA, geometric mean, read-out: hGLP-1R EC50. It is filed as cell-based. In a few lines: (§1)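 Read-out: HTRF cAMP (anti-cAMP cryptate donor, cAMP-d2 acceptor in conjugate/lysis buffer), converted to % Delta F and fitted by 4-parameter logistic for EC50. Cell densities were 1×10^5 cells/mL (hGLP-1R) or 2×10^5 cells/mL (hGCGR). Stimulation lasted 30 min at room temperature.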
human GLP-1 receptor (hGLP-1R), sequence (P43220 24-463): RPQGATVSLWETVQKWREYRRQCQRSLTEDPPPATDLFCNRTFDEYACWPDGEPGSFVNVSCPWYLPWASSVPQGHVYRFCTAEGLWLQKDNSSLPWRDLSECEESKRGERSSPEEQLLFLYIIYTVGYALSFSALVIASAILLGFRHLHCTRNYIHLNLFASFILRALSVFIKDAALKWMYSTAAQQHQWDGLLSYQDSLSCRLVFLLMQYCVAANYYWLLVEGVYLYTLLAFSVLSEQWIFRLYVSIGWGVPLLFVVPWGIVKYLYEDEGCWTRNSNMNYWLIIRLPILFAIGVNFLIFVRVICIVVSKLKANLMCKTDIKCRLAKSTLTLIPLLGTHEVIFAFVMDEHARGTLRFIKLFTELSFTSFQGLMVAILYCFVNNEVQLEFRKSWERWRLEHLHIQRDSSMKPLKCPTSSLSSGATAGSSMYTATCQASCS
On the technique in general: Changes in cAMP serve as a functional read-out for many G protein-coupled receptors.

The target of assay [2] is human glucagon receptor (hGCGR) (Homo sapiens, UniProt P47871). In words: cAMP production (HTRF) in CHO cells expressing hGCGR. The format is cell-based. To be noted: cAMP, CHO cells, 0.1% BSA, geometric mean; read-out: hGluc-R EC50. On the set-up: expressed in transfected cells. An outline of the steps:
as §1

Starred links: 1 amine or outer side, 2 acyl side, 3 side chain; linkers in the order of their positions; H or OH if unused. Non-standard residues stand in square brackets, D forms with d. Residues, ends and D or L forms follow the SMILES beside them. Groups on a side chain read outwards from the residue. *: point of attachment. X1 = CC(C)(CCNC(=N)N)[C@H](N[*:1])C(=O)[*:2]; C20 diacid = O=C(O)CCCCCCCCCCCCCCCCCCC(=O)*; C18 diacid = O=C(O)CCCCCCCCCCCCCCCCC(=O)*; γGlu = O=C(O)[C@H](CCC(=O)[*:2])N[*:1]; Palmitoyl = CCCCCCCCCCCCCCCC(=O)*; αMeF = C[C@](N)(Cc1ccccc1)C(=O)O; PEG2 = NCCOCCOCCC(=O)O; AEEA = NCCOCCOCC(=O)O; Aib = CC(C)(N)C(=O)O

human glucagon receptor (hGCGR), sequence (P47871 26-477): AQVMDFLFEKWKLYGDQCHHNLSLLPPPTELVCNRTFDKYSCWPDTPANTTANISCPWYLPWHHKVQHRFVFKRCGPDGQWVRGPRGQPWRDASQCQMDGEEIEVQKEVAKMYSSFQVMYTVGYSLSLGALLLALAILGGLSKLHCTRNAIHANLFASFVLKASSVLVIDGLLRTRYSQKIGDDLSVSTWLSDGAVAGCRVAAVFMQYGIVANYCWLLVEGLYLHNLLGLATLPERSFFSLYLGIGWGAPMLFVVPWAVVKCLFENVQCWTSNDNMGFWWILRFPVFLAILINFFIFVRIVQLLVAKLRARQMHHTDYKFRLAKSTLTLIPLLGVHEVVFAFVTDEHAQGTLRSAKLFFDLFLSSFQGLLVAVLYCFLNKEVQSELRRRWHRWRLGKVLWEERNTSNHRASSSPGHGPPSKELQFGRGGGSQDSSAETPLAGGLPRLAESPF

Turning to `CC[C@H](C)[C@H](NC(=O)[C@H](CO)NC(=O)[C@H](CCCCNC(=O)COCCOCCNC(=O)COCCOCCNC(=O)CC[C@H](NC(=O)CCCCCCCCCCCCCCCCC(=O)O)C(=O)O)NC(=O)[C@@H](NC(=O)[C@](C)(Cc1ccccc1)NC(=O)[C@H](CC(=O)O)NC(=O)[C@H](CCC(N)=O)NC(=O)[C@H](C)NC(=O)[C@H](C)NC(=O)[C@H](CCCNC(=N)N)NC(=O)[C@H](CO)NC(=O)[C@H](CC(=O)O)NC(=O)[C@H](CC(C)C)NC(=O)[C@](C)(Cc1ccccc1)NC(=O)[C@H](CCCCN)NC(=O)[C@H](CO)NC(=O)[C@@H](NC(=O)[C@H](CC(=O)O)NC(=O)[C@H](CO)NC(=O)[C@@H](NC(=O)[C@](C)(Cc1ccccc1)NC(=O)[C@H](CO)NC(=O)CNC(=O)[C@H](Cc1c[nH]cn1)NC(=O)C(C)(C)NC(=O)[C@@H](N)Cc1c[nH]cn1)[C@@H](C)O)C(C)C)C(C)C)C(=O)N[C@@H](C)C(=O)N[C@@H](CC(N)=O)C(=O)N[C@H](C(N)=O)[C@@H](C)O` [Peptide 379] (H-H[Aib]HGS[αMeF]TSDVSK[αMeF]LDSRAAQD[αMeF]VK([AEEA-AEEA-γGlu-C18 diacid])SIANT-NH2), the “% Relative Potency Ratio” value in assay [1] was 2.4. Also, the EC50 – broadly, the concentration that produces a half-maximal response – in assay [1] stood at 0.0718 nM; in assay [2] it was 0.0857 nM.

As for `CC[C@H](C)[C@H](NC(=O)[C@H](CO)NC(=O)[C@H](CCCCNC(=O)COCCOCCNC(=O)COCCOCCNC(=O)CC[C@H](NC(=O)CC[C@H](NC(=O)CCCCCCCCCCCCCCCCC(=O)O)C(=O)O)C(=O)O)NC(=O)[C@@H](NC(=O)[C@H](Cc1ccccc1)NC(=O)[C@H](CC(=O)O)NC(=O)[C@H](CCC(N)=O)NC(=O)[C@H](C)NC(=O)[C@H](C)NC(=O)[C@H](CCCNC(=N)N)NC(=O)[C@H](CO)NC(=O)[C@H](CC(=O)O)NC(=O)[C@H](CC(C)C)NC(=O)[C@](C)(Cc1ccccc1)NC(=O)[C@H](CCCCN)NC(=O)[C@H](CO)NC(=O)[C@@H](NC(=O)[C@H](CC(=O)O)NC(=O)[C@H](CO)NC(=O)[C@@H](NC(=O)[C@](C)(Cc1ccccc1)NC(=O)[C@H](CO)NC(=O)CNC(=O)[C@H](Cc1c[nH]cn1)NC(=O)C(C)(C)NC(=O)[C@@H](N)Cc1c[nH]cn1)[C@@H](C)O)C(C)C)C(C)C)C(=O)N[C@@H](C)C(=O)N[C@@H](CC(N)=O)C(=O)N[C@H](C(=O)NCC(=O)NCC(N)=O)[C@@H](C)O` [Peptide 381] (H-H[Aib]HGS[αMeF]TSDVSK[αMeF]LDSRAAQDFVK([AEEA-AEEA-γGlu-γGlu-C18 diacid])SIANTGG-NH2; N-terminus assumed), in assay [1], the “% Relative Potency Ratio” value is 14.9 and the concentration for a half-maximal effect (EC50) turned out to be 0.174 nM. For the same compound, in assay [2], the EC50 turned out to be 1.31 nM.

Consider `CC[C@H](C)[C@H](NC(=O)[C@H](CO)NC(=O)[C@H](CCCCNC(=O)COCCOCCNC(=O)COCCOCCNC(=O)CC[C@H](NC(=O)CC[C@H](NC(=O)CCCCCCCCCCCCCCCCC(=O)O)C(=O)O)C(=O)O)NC(=O)[C@@H](NC(=O)[C@H](Cc1ccccc1)NC(=O)[C@H](CC(=O)O)NC(=O)[C@H](CCC(N)=O)NC(=O)[C@H](C)NC(=O)C(C)(C)NC(=O)[C@H](CCCNC(=N)N)NC(=O)[C@H](CO)NC(=O)[C@H](CC(=O)O)NC(=O)[C@H](CC(C)C)NC(=O)[C@](C)(Cc1ccccc1)NC(=O)[C@H](CCCCN)NC(=O)[C@H](CO)NC(=O)[C@@H](NC(=O)[C@H](CC(=O)O)NC(=O)[C@H](CO)NC(=O)[C@@H](NC(=O)[C@](C)(Cc1ccccc1)NC(=O)[C@H](CO)NC(=O)CNC(=O)[C@H](Cc1c[nH]cn1)NC(=O)C(C)(C)NC(=O)[C@@H](N)Cc1c[nH]cn1)[C@@H](C)O)C(C)C)C(C)C)C(=O)N[C@@H](C)C(=O)N[C@@H](CC(N)=O)C(=O)N[C@H](C(=O)NCC(=O)NCC(N)=O)[C@@H](C)O` [Peptide 382, H(Aib)HGS(αMePhe)TSDVSK(αMePhe)LDSR(Aib)AQDFVK(O2OC-O2OC-γE-γE-C18diacid)24SIANTGG-amide] (H-H[Aib]HGS[αMeF]TSDVSK[αMeF]LDSR[Aib]AQDFVK([AEEA-AEEA-γGlu-γGlu-C18 diacid])SIANTGG-NH2; N-terminus assumed), for which, in assay [1], the “% Relative Potency Ratio” value is recorded as 11.6 and the EC50 came out at 0.056 nM. Further, in assay [2], the EC50 amounted to 0.329 nM.

On to `CC[C@H](C)[C@H](NC(=O)C(C)(C)NC(=O)[C@H](CCCCNC(=O)COCCOCCNC(=O)COCCOCCNC(=O)CC[C@H](NC(=O)CCCCCCCCCCCCCCCCC(=O)O)C(=O)O)NC(=O)[C@@H](NC(=O)[C@](C)(Cc1ccccc1)NC(=O)[C@H](CC(=O)O)NC(=O)[C@H](CCC(N)=O)NC(=O)[C@H](C)NC(=O)[C@H](C)NC(=O)[C@H](CCC(N)=O)NC(=O)[C@H](CO)NC(=O)[C@H](CC(=O)O)NC(=O)[C@H](CC(C)C)NC(=O)[C@](C)(Cc1ccccc1)NC(=O)[C@H](CCCCN)NC(=O)[C@H](CO)NC(=O)[C@@H](NC(=O)[C@H](CC(=O)O)NC(=O)[C@H](CO)NC(=O)[C@@H](NC(=O)[C@](C)(Cc1ccccc1)NC(=O)[C@H](CO)NC(=O)CNC(=O)[C@H](Cc1c[nH]cn1)NC(=O)C(C)(C)NC(=O)[C@@H](N)Cc1c[nH]cn1)[C@@H](C)O)C(C)C)C(C)C)C(=O)N[C@@H](C)C(=O)N[C@@H](CC(N)=O)C(=O)N[C@H](C(N)=O)[C@@H](C)O` [Peptide 383] (H-H[Aib]HGS[αMeF]TSDVSK[αMeF]LDSQAAQD[αMeF]VK([AEEA-AEEA-γGlu-C18 diacid])[Aib]IANT-NH2; N-terminus assumed), for which the “% Relative Potency Ratio” value in assay [1] is 2.3. For the same compound, the figures for the EC50 in assay [1] and in assay [2] were 0.197 nM and 0.232 nM, respectively.

Take `CC[C@H](C)[C@H](NC(=O)C(C)(C)NC(=O)[C@H](CCCCNC(=O)COCCOCCNC(=O)COCCOCCNC(=O)CC[C@H](NC(=O)CC[C@H](NC(=O)CCCCCCCCCCCCCCCCCCC(=O)O)C(=O)O)C(=O)O)NC(=O)[C@@H](NC(=O)[C@](C)(Cc1ccccc1)NC(=O)[C@H](CC(=O)O)NC(=O)[C@H](CCC(N)=O)NC(=O)[C@H](C)NC(=O)[C@H](C)NC(=O)[C@H](CCC(N)=O)NC(=O)[C@H](CO)NC(=O)[C@H](CC(=O)O)NC(=O)[C@H](CC(C)C)NC(=O)[C@](C)(Cc1ccccc1)NC(=O)[C@H](CCCCN)NC(=O)[C@H](CO)NC(=O)[C@@H](NC(=O)[C@H](CC(=O)O)NC(=O)[C@H](CO)NC(=O)[C@@H](NC(=O)[C@](C)(Cc1ccccc1)NC(=O)[C@H](CO)NC(=O)CNC(=O)[C@H](Cc1c[nH]cn1)NC(=O)C(C)(C)NC(=O)[C@@H](N)Cc1c[nH]cn1)[C@@H](C)O)C(C)C)C(C)C)C(=O)N[C@@H](C)C(=O)N[C@@H](CC(N)=O)C(=O)N[C@H](C(N)=O)[C@@H](C)O` [Peptide 384] (H-H[Aib]HGS[αMeF]TSDVSK[αMeF]LDSQAAQD[αMeF]VK([AEEA-AEEA-γGlu-γGlu-C20 diacid])[Aib]IANT-NH2; N-terminus assumed): the “% Relative Potency Ratio” value in assay [1] turned out to be 3.1. In addition, the EC50 in assay [1] turned out to be 0.797 nM; in assay [2], 1.24 nM.

`CCCCCCCCCCCCCCCC(=O)N[C@@H](CCC(=O)N[C@@H](CCC(=O)NCCOCCOCCC(=O)NCCOCCOCCC(=O)NCCCC[C@H](NC(=O)[C@H](CCCCN)NC(=O)[C@H](CO)NC(=O)[C@@H](NC(=O)[C@H](CC(=O)O)NC(=O)[C@H](CO)NC(=O)[C@@H](NC(=O)[C@](C)(Cc1ccccc1)NC(=O)[C@H](CO)NC(=O)CNC(=O)[C@H](CCC(N)=O)NC(=O)[C@H](CO)NC(=O)[C@@H](N)Cc1c[nH]cn1)[C@@H](C)O)C(C)C)C(=O)N[C@@H](CC(C)C)C(=O)N[C@@H](CC(=O)O)C(=O)N[C@@H](CO)C(=O)N[C@H](C(=O)N[C@@H](C)C(=O)N[C@@H](C)C(=O)N[C@@H](CCC(N)=O)C(=O)N[C@@H](CC(=O)O)C(=O)N[C@@](C)(Cc1ccccc1)C(=O)N[C@H](C(=O)N[C@@H](CCC(=O)O)C(=O)NC(C)(C)C(=O)N[C@@H](CC(C)C)C(=O)N[C@@H](C)C(=O)N[C@@H](CC(N)=O)C(=O)N[C@H](C(N)=O)[C@@H](C)O)C(C)C)C(C)(C)CCNC(=N)N)C(=O)O)C(=O)O` [Peptide 400, HSQGS(αMePhe)TSDVSKK((PEG)2-(PEG)2-γE-γE-Palmitoyl)13LDS(β-dimethylArg)AAQD(αMePhe)VE(Aib)LANT-amide] (H-HSQGS[αMeF]TSDVSKK([PEG2-PEG2-γGlu-γGlu-Palmitoyl])LDS[X1]AAQD[αMeF]VE[Aib]LANT-NH2; N-terminus assumed): in assay [1], the “% Relative Potency Ratio” value came to 16.7 and the 50% effective concentration (EC50) was 0.00127 nM. Moreover, the EC50 in assay [2] was found to be 0.0107 nM.

For the compound `CC[C@H](C)[C@H](NC(=O)C(C)(C)NC(=O)[C@H](CCC(N)=O)NC(=O)[C@@H](NC(=O)[C@](C)(Cc1ccccc1)NC(=O)[C@H](CC(=O)O)NC(=O)[C@H](CCC(N)=O)NC(=O)[C@H](C)NC(=O)[C@H](C)NC(=O)[C@H](CCCNC(=N)N)NC(=O)[C@H](CO)NC(=O)[C@H](CC(=O)O)NC(=O)[C@H](CC(C)C)NC(=O)[C@H](CCCCNC(=O)COCCOCCNC(=O)COCCOCCNC(=O)CC[C@H](NC(=O)CCCCCCCCCCCCCCCCC(=O)O)C(=O)O)NC(=O)[C@H](CCCCN)NC(=O)[C@H](CO)NC(=O)[C@@H](NC(=O)[C@H](CC(=O)O)NC(=O)[C@H](CO)NC(=O)[C@@H](NC(=O)[C@](C)(Cc1ccccc1)NC(=O)[C@H](CO)NC(=O)CNC(=O)[C@H](Cc1c[nH]cn1)NC(=O)C(C)(C)NC(=O)[C@@H](N)Cc1c[nH]cn1)[C@@H](C)O)C(C)C)C(C)C)C(=O)N[C@@H](C)C(=O)N[C@@H](CC(N)=O)C(=O)N[C@H](C(N)=O)[C@@H](C)O` [Peptide 406] (H-H[Aib]HGS[αMeF]TSDVSKK([AEEA-AEEA-γGlu-C18 diacid])LDSRAAQD[αMeF]VQ[Aib]IANT-NH2; N-terminus assumed), in assay [1], the “% Relative Potency Ratio” value is 31.6 and the EC50 came to 0.458 nM. Moreover, the concentration giving a half-maximal response (EC50) in assay [2] is 7.31 nM.
